Laboratory results: patent US12377052B2, “Dual-responsive nanoparticles for enhanced antibacterial efficacy” (priority 2020, dated 2025)
≈ marks a conversion by molar mass, not a printed value. Read-outs that look alike come from different tables or passages of the source.

Legend:
[1] = test system: P. aeruginosa (ATCC 27853); assay: MIC, broth microdilution; format: cell-based
Procedure: (§1) Bacterial strains. S. aureus Newman was kindly provided by Prof. Douglas Weibel; E. coli ATCC25922, S. aureus ATCC 33591 and P. aeruginosa ATCC 27853 were purchased from ATCC. E. coli DH5a was purchased from Thermo Fisher. These bacteria were grown in Mueller Hinton Broth (MHB) media (Criterion, Santa Maria, CA, USA). M. smegmatis mc^2155 strain was kindly provided by Prof. Adel M. Talaat's laboratory, and it was grown in Middlebrook 7H9 broth (HiMedia, West Chester, PA, USA).
(§2) Minimal inhibitory concentration (MIC) measurements. The MIC of the different treatments on various bacteria strains was determined using the Clinical Laboratory Standards Institute broth microdilution method^8. Briefly, broth media (100 μL) containing two-fold serial dilutions of each compound were placed into a 96-well tissue culture plate. Each bacterial strain was taken from an exponentially growing culture and diluted to 5×10^6 CFU/mL. Ten microliters of such microbial suspension was inoculated in each well of the plate, resulting in a final bacteria concentration of approximately 5×10^5 CFU/mL. The bacteria were cultured at 37° C. for one day and their growth was observed by reading the optical density (OD) at 600 nm. The MIC was determined as the treatment concentration at which no microbial growth was observed. Broth containing microbial cells alone was used as a positive control and broth without bacteria inoculation was used as a negative control. Each test was carried out in 3 replicates.

MRSA (ATCC 33591) = assay: MIC, broth microdilution; format: cell-based, S. aureus
Procedure: as §1, §2

MRSA = assay: Checkerboard assay, FIC index; format: cell-based, S. aureus; details: antibiotic with the PBAE-G polymer
Procedure: (§3) Fractional inhibitory concentration (FIC) measurement. The synergy between the cationic polymer and antibiotic was assessed by checkerboard assays. The two antibacterial components were mixed in a 96-well plate with serial two-dimensional dilutions. Bacteria were inoculated in each well of the plate and their growth, reflected by the OD600 value, was monitored. The synergy effect was evaluated by calculating the FIC index according to the formula below:
(§4) [formula] MICA^Comb and MICB^Comb indicate the MICS of the two components in combination. The interactions between the two components are defined according to standard criteria of considering FIC≤0.5 as synergistic; 0.5<FIC≤1 as additive; 1<FIC≤4 as indifference; and FIC>4 as antagonism.

[2] = test system: P. aeruginosa (ATCC 27853); assay: Checkerboard assay, FIC index; format: cell-based; details: for FIC index: antibiotic with the PBAE-G polymer
Procedure: as §3, §4

MRSA biofilm = assay: Biofilm inhibition assay (crystal violet); format: cell-based, S. aureus; details: 32 μg/mL
Procedure: Biofilm inhibition assays. Exponentially growing bacteria were inoculated into 96 well plates (1×10^4 cell/well) containing MHB broth with 2% (w/v) glucose, and incubated under stationary conditions at 37° C. for one day. After biofilm formation, the medium was discarded, and the plates were washed with PBS to remove the planktonic bacteria. Fresh MHB broth containing serially diluted free rifampicin or NP was added to the plates and incubated at 37° C. for another 24 h. The media in each well was then removed, and the plates were washed carefully with PBS one time. The biofilm in each well was fixed with 95% ethanol for 15 min and stained with 0.1% crystal violet for 15 min. After the biofilm was washed with Milli-Q water for three times, 33% v/v acetic acid (100 μL/well) was added to the plate to solubilize the crystal violet staining. OD 560 in each well was read to assess the biofilm formation.

E. coli (DH5 alpha) = assay: MIC, broth microdilution; format: cell-based; details: Escherichia coli; no pH/H2O2 stimulus stated
Procedure: as §1, §2

S. aureus (Newman) = assay: MIC, broth microdilution; format: cell-based; details: Staphylococcus aureus, no pH/H2O2 stimulus stated
Procedure: as §1, §2

M. smegmatis (MC^2 155) [3] = assay: MIC, broth microdilution; format: cell-based; details: Mycolicibacterium smegmatis, MC^2155; no pH/H2O2 stimulus stated
Procedure: as §1, §2

E. coli (ATCC 25922) = assay: MIC, broth microdilution; format: cell-based; details: Escherichia coli, ATCC25922; no pH/H2O2 stimulus stated
Procedure: as §1, §2

E. coli ATCC 25922 = assay: Evaluation of antibiotic resistance development (serial passaging); format: cell-based; details: sub-lethal dose (0.5 MIC), after 20 passages
Procedure: Evaluation of antibiotic resistance development. […] The OD 600 value in each tube was examined to determine the MIC, and the bacteria cultured in the tube containing rifampicin at a ½ MIC was used for passage. The MIC for each passage was recorded and compared to that of the first passage to determine the drug resistance enhancement.

[4] = test system: Raw 264.7 murine macrophage cells; assay: Cell viability test (MTT assay); format: cell-based; details: Mus musculus, RAW264.7, 24 h, one day treatment
Procedure: Cell viability test. Cytotoxicity of different NP components was tested using MTT assays. Raw 264.7 murine macrophage cells were seeded onto a 96-well plate (1×10^4 cells/well) and cultured overnight. The cells were then treated with free antibiotic, PBAE-G polymer or NP with serial dilutions for one day and their viability was measured by a standard MTT assay. Data were collected by monitoring the difference between the absorbance at 560 nm and 650 nm using a GloMax-Multi Microplate Multimode Reader (Promega, WI, USA).

M. smegmatis (MC^2 155) [5] = assay: Checkerboard assay, FIC index; format: cell-based; details: low pH and high ROS condition
Procedure: as §3, §4

[6] = Table 1, antibiotic alone, in µg/mL (unit assumed)

Row | Compound | MIC [1, 6] | MIC (MRSA (ATCC 33591); Table 1, antibiotic alone) | FIC index (MRSA) | FIC index [2] | biofilm remained (MRSA biofilm) | MIC ([1]; Pseudomonas aeruginosa, ATCC27853, no pH/H2O2 stimulus stated, read-out: MIC P. aeruginosa (ATCC 27853)) | MIC (E. coli (DH5 alpha)) | MIC (S. aureus (Newman)) | MIC (M. smegmatis (MC^2 155) [3]) | MIC (E. coli (ATCC 25922)) | MIC (MRSA (ATCC 33591); Staphylococcus aureus, no pH/H2O2 stimulus stated, read-out: MIC MRSA (ATCC 33591)) | MIC increase compared to initial (E. coli ATCC 25922) | IC50 [4] | FIC index between rifampicin and the PBAE-G-B polymer ([2]; low pH and high ROS condition) | FIC index between rifampicin and the PBAE-G-B polymer (M. smegmatis (MC^2 155) [5])
1 | CC1(C)S[C@@H]2[C@H](NC(=O)[C@H](N)c3ccc(O)cc3)C(=O)N2[C@H]1C(=O)O [Amoxicillin] | 1024 | 128 µg/mL (≈ 350 µM) | 0.75 | 2 |  |  |  |  |  |  |  |  |  |  | 
2 | O=C(O)c1cn(C2CC2)c2cc(N3CCNCC3)c(F)cc2c1=O [Ciprofloxacin] | 0.25 | 0.5 µg/mL (≈ 1.51 µM) | 2 | 1 |  |  |  |  |  |  |  |  |  |  | 
3 | CCC[C@@H]1C[C@@H](C(=O)N[C@@H]([C@H]2O[C@H](SC)[C@H](O)[C@@H](O)[C@H]2O)[C@H](C)Cl)N(C)C1 [Clindamycin] | >1024 | 32 µg/mL (≈ 75.3 µM) | 0.562 | <0.25 |  |  |  |  |  |  |  |  |  |  | 
4 | CO[C@H]1/C=C/O[C@@]2(C)Oc3c(C)c(O)c4c(O)c(c(/C=N/N5CCN(C)CC5)c(O)c4c3C2=O)NC(=O)/C(C)=C\C=C\[C@H](C)[C@H](O)[C@@H](C)[C@@H](O)[C@@H](C)[C@H](OC(C)=O)[C@@H]1C [Rifampicin] | 32 | 0.016 µg/mL (≈ 0.0194 µM) | 1 | 0.25 | More than 80% | 32 µg/mL (≈ 38.9 µM) | 16 µg/mL (≈ 19.4 µM) | 0.016 µg/mL (≈ 0.0194 µM) | 128 µg/mL (≈ 156 µM) | 16 µg/mL (≈ 19.4 µM) | 0.016 µg/mL (≈ 0.0194 µM) | 40 fold | 210 µg/mL (≈ 255 µM) | 0.188 | 0.25
5 | [H]/N=C(/N)N[C@H]1[C@H](O)[C@@H](O)[C@H](O[C@@H]2O[C@@H](C)[C@](O)(C=O)[C@H]2O[C@@H]2O[C@@H](CO)[C@H](O)[C@@H](O)[C@@H]2NC)[C@@H](N/C(N)=N\[H])[C@@H]1O [Streptomycin] | 16 | 16 µg/mL (≈ 27.5 µM) | 0.266 | 0.25 |  |  |  |  |  |  |  |  |  |  | 
6 | CN[C@H](CC(C)C)C(=O)N[C@H]1C(=O)N[C@@H](CC(N)=O)C(=O)N[C@H]2C(=O)N[C@H]3C(=O)N[C@H](C(=O)N[C@H](C(=O)O)c4cc(O)cc(O)c4-c4cc3ccc4O)[C@H](O)c3ccc(c(Cl)c3)Oc3cc2cc(c3O[C@@H]2O[C@H](CO)[C@@H](O)[C@H](O)[C@H]2O[C@H]2C[C@](C)(N)[C@H](O)[C@H](C)O2)Oc2ccc(cc2Cl)[C@H]1O [Vancomycin] | 1024 | 1 µg/mL (≈ 0.69 µM) | 1 | 2 |  |  |  |  |  |  |  |  |  |  | 
7 | Gentamicin | 1 | 1 µg/mL | 0.5 | 0.375 |  |  |  |  |  |  |  |  |  |  | 
